Patent US5750139A (priority 1994, dated 1998)
Read-outs that look alike come from different tables or passages of the source. Values belong to the molecule of their own block, whether it stands above or below them.

Experiments:
[1] = cited from earlier work
[2] = intra-individual pharmacokinetics, TDS versus oral tablet, one healthy volunteer; format: in vivo, human
Protocol: For better comparability, some pharmacokinetic preliminary experiments were carried out on one and the same healthy volunteer (i.e. intra-individually).

[3] = GCP-complying pharmacokinetic study of TDS with 14 healthy volunteers; format: in vivo, human
[4] = system: rat skin versus human skin; settings: cited from earlier work
[5] = diffusion/dialysis of benzopyrone from formulation through cellulose membrane (layer thickness, pore size, viscosity); format: physicochemical
Excerpt: When the same formulation was used, for example, the diffusion rate increased only by a factor of 1.6 when the pore volume was increased from 20 kD to 100 kD.

[6] = system: rat skin; settings: cited from earlier work
[7] = system: inflamed target tissues; settings: in vivo
[8] = kinetics of active ingredient diffusion through the membrane in vitro; format: physicochemical
Protocol: The TDS to be tested were preselected by means of in vitro measurements of the dialysis of benzopyrone from the TDS investigated. For this purpose, the TDS available was stuck, on the side facing the skin, i.e. the membrane side, by means of the adhesive layer, in a dialysis apparatus and was dialyzed against an excess of a solution of polyethylene glycol 400 or against an albumin or saline solution for at least 24 h. […] The half-lives for a 50% and 95% diffusion yield (t/2 50% and t/2 95%, respectively) were calculated from the linear part of the dialysis curves. For example, three selected formulations gave the following half-lives (Table 1): […]

[9] = 96 h application of a TDS: bioavailability, blood levels of benzopyrone during application and after removal
[10] = human, in vivo, topical or ocular
[11] = human, blood, topical or ocular, 200 mg

SMILES: O=c1ccc2ccc(O)cc2o1 [7-hydroxybenzopyrone]
glucuronidation step faster than preceding oxidation reaction ([1]; liver, coupled metabolic conversion): about 3.5 times | blood levels of II, TDS lower than after oral dose ([2]; TDS versus oral): 6-10 times | maximum blood concentrations of II, TDS versus oral, based on the same absorbed dose ([2]; TDS versus oral, same absorbed dose): approximately comparable | blood levels of 7-hydroxybenzopyrone, oral compared with transdermal ([2]; oral versus transdermal): substantially higher | decrease of blood levels of 7-hydroxybenzopyrone ([3]; after removal of the TDS): decreased rapidly

SMILES: COC1=CC(=O)C[C@@H](C)[C@]12Oc1c(Cl)c(OC)cc(OC)c1C2=O [griseofulvin]
penetration of rat skin more readily than human skin [4]: 14 times

SMILES: CC1(C)C(C=C(Cl)Cl)C1C(=O)OC(C#N)c1cccc(Oc2ccccc2)c1 (centres unmarked) [cypermethrin]
penetration of rat skin more readily than human skin [4]: 20 times

Amount of benzopyrone diffusing within 8 h ([5]; layer thickness 0.1 mm, 20% formulation, cellulose membrane 20 kD, 2.5 cm^2): 8 mg | Amount of benzopyrone diffusing within 8 h ([5]; layer thickness 0.2 mm, 20% formulation, cellulose membrane 20 kD, 2.5 cm^2): 14 mg | Amount of benzopyrone diffusing within 8 h ([5]; layer thickness 0.4 mm, 20% formulation, cellulose membrane 20 kD, 2.5 cm^2): 14 mg | rate of dialysis of the benzopyrone ([5]; on increasing the viscosity of the formulation): considerably reduced | factor of increase of the diffusion rate ([5]; pore volume increased from 20 kD to 100 kD, same formulation): 1.6 | blood levels of benzopyrone (I), transdermal higher than after oral administration ([2]; TDS versus oral): 10 times | maximum blood levels of (I), TDS higher than after oral, based on same dose absorbed per day ([2]; human, in vivo, po): 57 times | Tmax ([2]; human, in vivo, po, t max of benzopyrone (I)): 3 h | bioavailability at 48 h [2, 10]: 35% | concentration at 4 h ([3]; human, blood, topical or ocular, 4 h after removal of the TDS (200 mg)): 4.96 ng/mL | concentration at 3 h ([3]; human, blood, topical or ocular, single TDS 200 mg, application time 3 h): 23.4 ng/mL | concentration at 24 h ([3]; human, blood, topical or ocular, single TDS 200 mg, application time 24 h): 27.3 ng/mL | time to steady state of blood benzopyrone level ([3]; single TDS 200 mg): 3 h | release of benzopyrone over 96 h ([9]; TDS worn 4 days): takes place in a constant manner | concentration at 3 h [9, 11]: 2.4 ng/mL | concentration at 6 h [9, 11]: 0.8 ng/mL | concentration at 48 h [9, 11]: 5.5 ng/mL | concentration at 72 h [9, 11]: 6.1 ng/mL | concentration at 82 h [9, 11]: 8.7 ng/mL | concentration at 96 h [9, 11]: 6.6 ng/mL | bioavailability at 96 h [9, 10]: 70%
SMILES: O=c1ccc2ccccc2o1 [benzopyrone, 5,6-benzo-alpha-pyrone]
first pass metabolism in the liver ([1]; oral application): virtually quantitative | unchanged benzopyrone entering the circulation from the liver ([1]; oral application): virtually no unchanged benzopyrone | dialyzable amount of benzopyrone with increasing layer thickness ([5]; 20% formulation, cellulose membrane 20 kD, 2.5 cm^2): increases with increasing layer thickness until the saturation limit of the control membrane is reached and then remains constant | unabsorbed proportion of benzopyrone after 12 hours ([6]; 1 g of 5% ointment over 30 cm^2, rat 1): 1.95 percent by weight | unabsorbed proportion of benzopyrone after 12 hours ([6]; 1 g of 5% ointment over 30 cm^2, rat 2): 13.24 percent by weight | unabsorbed proportion of benzopyrone after 12 hours ([6]; 1 g of 5% ointment over 30 cm^2, rat 3): 42.8 percent by weight | accumulation in tissue [7]: preferably accumulates in inflamed target tissues | kinetics of active ingredient diffusion through the membrane [8]: linear kinetics | active ingredient release over total application time ([9]; 96 h application): linear

SMILES: O=C(O)[C@H]1O[C@@H](Oc2ccc3ccc(=O)oc3c2)[C@H](O)[C@@H](O)[C@@H]1O [glucuronide (III)]
pharmacological activity ([1]; in vivo): pharmacologically inactive
